Data: PMC5298231, “The Malaria Parasite's Lactate Transporter PfFNT Is the Target of Antiplasmodial Compounds Identified in Whole Cell Phenotypic Screens” (PLoS Pathogens, 2017)
Read-outs that look alike come from different tables or passages of the source. Peptide text beside a SMILES is read from it.

System: erythrocytes infected with 3D7 trophozoites
Type: cell-based, Plasmodium falciparum

Compound	Ratio of metabolite abundance, Exp1_1hr (sheet Ratio, Exp1, 1hr)	Ratio of metabolite abundance, Exp1_3hr (sheet Ratio, Exp1, 3hr)	Ratio of metabolite abundance, Exp1_6hr (sheet Ratio, Exp1, 6hr)	Ratio of metabolite abundance, Exp2_1hr (sheet Ratio, Exp2, 1hr)	Ratio of metabolite abundance, Exp2_3hr (sheet Ratio, Exp2, 3hr)	Ratio of metabolite abundance, Exp2_6hr (sheet Ratio, Exp2, 6hr)	Ratio of metabolite abundance, Exp3_1hr (sheet Ratio, Exp3, 1hr)	Ratio of metabolite abundance, Exp3_3hr (sheet Ratio, Exp3, 3hr)	Ratio of metabolite abundance, Exp3_6hr (sheet Ratio, Exp3, 6hr)	also measured
O=C(O)[C@H](Cc1ccccc1)NC(=O)[C@H](Cc1cnc[nH]1)NC(=O)[C@@H]1CCCN1 [PHF] (H-Pro-His-Phe-OH)	1.822	0.7039	1.872	2.081	1.353	2.7014	2.437	1.168	1.525	–
CC(C)[C@H](NC(=O)[C@@H]1CCCN1C(=O)[C@@H]1CCCN1)C(=O)N[C@@H](CCC(N)=O)C(=O)O [PPVQ] (H-PPVQ-OH)	1.0595	0.6401	0.763	1.014	0.8051	0.8204	0.973	0.9388	0.9472	–
CC(C)[C@H](NC(=O)[C@@H]1CCCN1)C(=O)N[C@@H](CC(N)=O)C(=O)N[C@@H](Cc1ccccc1)C(=O)O [PVNF] (H-PVNF-OH)	0.6556	0.3908	1.343	0.8248	0.5795	1.295	0.9151	0.7449	2.085	–
CC(C)[C@H](NC(=O)[C@@H]1CCCN1)C(=O)N[C@@H](CCC(N)=O)C(=O)N[C@@H](C)C(=O)O [PVQA] (H-PVQA-OH)	0.5661	0.3168	0.8691	0.7152	0.5356	0.8856	0.5318	0.3152	1.03	–
CC(C)[C@H](NC(=O)[C@@H]1CCCN1)C(=O)N[C@@H](CCC(N)=O)C(=O)O [PVQ] (H-Pro-Val-Gln-OH)	1.621	0.8912	2.731	1.963	1.4303	3.535	1.9381	1.515	2.354	–
O=C(O)C1CCCCN1 (stereo not drawn) [Pipecolate]	1.3778	1.045	1.52	1.38	1.052	2.481	1.352	1.13	2.281	–
O=C[C@H](O)[C@H](O)[C@H](O)COP(=O)(O)O [Ribose-5-phosphate]	2.775	3.2124	2.288	1.429	1.2203	1.178	1.678	1.594	1.155	–
Nc1ncnc2c1ncn2[C@@H]1O[C@H](CSCC[C@H](N)C(=O)O)[C@@H](O)[C@H]1O [S-Adenosyl-L-homocysteine]	0.9683	0.7021	0.8395	0.9429	0.8753	1.175	0.839	0.8468	0.8042	–
CC(C)C[C@H](NC(=O)CNC(=O)[C@H](CC(=O)O)NC(=O)[C@@H](N)CO)C(=O)N[C@@H](C)C(=O)O [SDGLA] (H-SDGLA-OH)	0.8703	0.6348	0.4701	0.9687	0.9448	0.8041	0.872	0.7497	0.5099	–
N[C@@H](CO)C(=O)N[C@@H](Cc1ccccc1)C(=O)NCC(=O)N[C@@H](CC(=O)O)C(=O)O [SFGD] (H-SFGD-OH)	0.9984	0.657	0.8343	0.9574	0.8881	0.8874	0.972	0.9269	0.9926	–
O=C(COP(=O)(O)O)[C@@H](O)[C@H](O)[C@H](O)[C@H](O)COP(=O)(O)O [Sedoheptoluse bisphosphate]	2.263	0.7031	0.6514	1.522	1.277	0.7611	1.031	0.8186	0.6336	–
O=CCCC(=O)O [Succinate semialdehyde]	0.6229	0.6245	0.614	0.9462	0.5836	0.7757	0.7696	0.6244	0.8444	–
O=C(O)CCC(=O)O [Succinate]	–	–	–	–	–	–	–	–	–	Log2 Exp1_1hr: 0.7494; Log2 Exp1_3hr: -0.1278; Log2 Exp1_6hr: -0.06195; Log2 Exp2_1hr: 0.5818; Log2 Exp2_3hr: -0.0254; Log2 Exp2_6hr: 0.5995; Log2 Exp3_1hr: 0.1613; Log2 Exp3_3hr: -0.5854; Log2 Exp3_6hr: 0.007182; Ratio of metabolite abundance, Exp1_1hr: 1.681; Ratio of metabolite abundance, Exp1_3hr: 0.9152; Ratio of metabolite abundance, Exp1_6hr: 0.958; Ratio of metabolite abundance, Exp2_1hr: 1.497; Ratio of metabolite abundance, Exp2_3hr: 0.9825; Ratio of metabolite abundance, Exp2_6hr: 1.515; Ratio of metabolite abundance, Exp3_1hr: 1.118; Ratio of metabolite abundance, Exp3_3hr: 0.6665; Ratio of metabolite abundance, Exp3_6hr: 1.005
CC(C)[C@H](NC(=O)[C@H](CC(N)=O)NC(=O)[C@@H](N)[C@@H](C)O)C(=O)N[C@@H](CCCCN)C(=O)O [TNVK] (H-TNVK-OH)	0.4459	0.2171	0.7349	0.5855	0.3584	0.8812	0.5059	0.3409	1.2	–
CC(=O)N[C@H]1[C@@H](OP(=O)(O)OP(=O)(O)OC[C@H]2O[C@@H](n3ccc(=O)[nH]c3=O)[C@H](O)[C@@H]2O)O[C@H](CO)[C@@H](O)[C@@H]1O [UDP-N-acetyl-D-glucosamine]	1.076	0.9078	0.813	0.9909	1.08	0.8625	1.118	1.138	0.9727	–
O=c1ccn([C@@H]2O[C@H](COP(=O)(O)OP(=O)(O)O)[C@@H](O)[C@H]2O)c(=O)[nH]1 [UDP]	0.7834	0.4305	0.5124	1.213	0.7051	0.7343	0.7602	0.7434	0.9366	–
O=c1ccn([C@@H]2O[C@H](COP(=O)(O)O)[C@@H](O)[C@H]2O)c(=O)[nH]1 [UMP]	0.9634	0.9303	0.812	0.4945	0.6514	1.0366	0.9925	0.9562	0.9948	–
CC(C)[C@H](N)C(=O)N[C@@H](CC(=O)O)C(=O)O [VD]	1.809	1.252	2.887	2.091	1.368	1.996	11.5926	5.435	7.8446	–
Nc1ncnc2c1ncn2[C@H]1C[C@H](O)[C@@H](COP(=O)(O)OP(=O)(O)O)O1 [dADP]	0.4339	0.1672	0.2747	1.0009	0.9609	1.167	1.173	0.5208	1.268	–
